The record followed here is ChEMBL document CHEMBL3044950, “Insecticidal activity of Paraherquamides, including paraherquamide H and paraherquamide I, two new alkaloids isolated from Penicillium cluniae” (2006).

SMILES strings stand for the structures.

The experiment relates to Oncopeltus fasciatus. Kind of experiment: Insecticidal activity against Oncopeltus fasciatus fourth-instar nymphs assessed as induction of insect mortality after compound topical application measured 72 hr post compound application. The experiment is classed as functional.
In the case of `C[C@H]1CCN2C[C@]34C[C@@]5(C(=O)Nc6c5ccc5c6OC=CC(C)(C)O5)C(C)(C)[C@@H]3C[C@]12C(=O)N4C` [PARAHERQUAMIDE E], the LD50 amounted to 0.089 µg.

With `CN1C(=O)[C@@]23CCCN2C[C@@]12C[C@@]1(C(=O)Nc4c1ccc1c4OC=CC(C)(C)O1)C(C)(C)[C@@H]2C3` [PARAHERQUAMIDE B], the LD50 was determined as 16.54 µg.

As for `CN1C(=O)[C@]23C[C@H]4C(C)(C)[C@@]5(C[C@@]41C[N+]2([O-])CC[C@@]3(C)O)C(=O)Nc1c5ccc2c1OC=CC(C)(C)O2` (stereo not given in full) [N-OXIDE PARAHERQUAMIDE], the LD50 came out at 7.01 µg.

For the molecule `CN1C(=O)[C@]23C[C@H]4C(C)(C)[C@@]5(C[C@@]41CN2C(=O)C[C@@]3(C)O)C(=O)Nc1c5ccc2c1OC=CC(C)(C)O2`, the LD50 was found to be 0.91 µg.

In the case of `CN1C(=O)[C@]23C[C@@H]4C(C)(C)[C@@]5(C[C@@]41CN2CC[C@@]3(C)O)C(=O)Nc1c5ccc2c1OC=CC(C)(C)O2` [Paraherquamide A], the LD50 was 0.32 µg.
